Reference: ChEMBL document CHEMBL1127776, “Stereospecific synthesis of a pentopyranosyl analogue of d4T monophosphate” (Bioorg Med Chem Lett, 1994)
Active and inactive are the calls of the source.

How the values were obtained:
Type in all cases: functional, cell-based
Conditions in all cases: Homo sapiens
CCRF-CEM [1] = assay: Compound was tested for the inhibition of HIV-2 replication in CEM cell culture up to 100 ug/mL concentration; Not active
CCRF-CEM [2] = assay: Compound was tested for toxicity to the CEM cell monolayers; No toxicity
CCRF-CEM [3] = assay: Compound was tested for the inhibition of HIV-1 replication in CEM cell culture up to 100 ug/mL concentration; Not active

Cc1cn(C2C=CC(OCP(=O)(O)O)CO2)c(=O)[nH]c1=O (stereo not drawn)
inactive: inhibition (CCRF-CEM [1]) | Toxicity (CCRF-CEM [2]) Not toxic | inhibition (CCRF-CEM [3])
